# Data taken from PMC6368337, “GluClR-mediated inhibitory postsynaptic currents reveal targets for ivermectin and potential mechanisms of ivermectin resistance” (PLoS Pathogens, 2019).
# Tests used:
# β GluClRs = β GluClRs (Haemonchus contortus, UniProt P91730); experiment: Single channel recording, outside-out patches, β GluClRs; type: cell-based, H. contortus; conditions: 2 μM glutamate plus 5 nM IVM
# Text: To explore whether a similar mechanism applies to β-containing GluClRs, we recorded single receptor currents in excised patches from cells transfected with either the α and β subunits (1:1) or the β subunit alone. […] By contrast, patches from cells transfected with the β subunit alone invariably opened to an amplitude of 0.4 pA (Fig 6C). Amplitude histograms confirmed two amplitude levels for αβ GluClRs and a single amplitude for the β GluClRs (Fig 6D). […] We infer that the αβ GluClRs that open to 0.7 pA likely contain a greater proportion of β subunits. This is consistent with β GluClRs having the smallest amplitude and α GluClRs having the greatest amplitude (1.8 pA) under similar recording conditions. The calculated conductance values for the corresponding amplitudes for αβ GluClRs was 15.2 pS and 8.9 pS and for the β GluClRs was 5.1 pS.
# Single-channel currents were recorded from outside-out excised patches at a clamped potential of −70 mV. The single channel conductance was calculated by dividing the mean current by the net driving force at a clamped potential of ‐70 mV, after accounting for reversal and liquid junction potentials. Excised patches were continuously perfused via a gravity-fed double-barrelled glass tube, which contained extracellular bath solution containing (in mM), 140 NaCl, 5 KCl, 1 MgCl2, 2 CaCl2, 10 HEPES, and 10 D-glucose and titrated to pH 7.4. Glutamate and IVM were dissolved in this extracellular solution. Recording electrodes were pulled from borosilicate glass (G150F-3; Warner Instruments), coated with a silicone elastomer (Sylgard-184; Dow Corning) and heat-polished to a final tip resistance of 4–15 MΩ when filled with an intracellular solution containing (in mM) 145 CsCl, 2 MgCl2, 2 CaCl2, 10 HEPES, and 5 EGTA, pH 7.4. […] A 10 mM stock of IVM (Sigma-Aldrich) was dissolved in 100% DMSO and kept frozen at ‐20°C. Fresh working stocks of IVM at 5 nM were prepared by dissolving the appropriate quantity directly in extracellular solution. 100% DMSO when dissolved in extracellular solution alone at the same concentration as was present in working solutions containing 5 nM IVM had no effect on patches excised from cells transfected with GluClRs or from untransfected cells.
# Currents were recorded using an Axopatch 200B amplifier (Molecular Devices), filtered at 5 kHz and digitized at 20 kHz using Clampex (pClamp 10 suite, Molecular Devices) via a Digidata 1440A digitizer.
# Group data were analysed in SigmaPlot 13.0 using one-way ANOVAs, where p < 0.05 was taken as the significance threshold and expressed as mean ± SEM. Tests for normally distributed data are built into the SigmaPlot software. Confocal images were captured and analysed with Zen 2012 SP2 (Zeiss) software. Oocyte concentration-response data were fit to a Hill equation to obtain an EC50 and Hill co-efficient for each oocyte recording. These parameters were then averaged across multiple oocyte experiments of the same type. Single channel recordings were analysed in QuB software. […] Patches yielded between 30–250 individual active periods. […] The selected critical times eliminated periods of receptor desensitisation while retaining singe receptor active periods. Mean active period duration and intra-activation open probability was estimated from each patch. Group means were obtained by averaging across multiple patches for each recording condition.
# α GluClRs = experiment: IPSC recording in HEK293-neuron heteroculture, α GluClRs; type: cell-based, H. contortus; conditions: 5 nM IVM
# Procedure: cDNAs encoding the α (avr-14b) (pcDNA 3.1+) or β (pUNIV) GluClR subunits of H. contortus were nuclear injected into oocytes (NASCO, WI USA) or transfected into HEK293AD cells (CellBank Australia) using a calcium phosphate-DNA co-precipitate method. Synapse formation between neurons and HEK293 cells was promoted by co-transfecting neuroligin 2A or 1B and the cDNA encoding CD4 surface antigen was also added to the transfection mixture so as to identify transfected cells. The oocytes and HEK cells were used for experiments 2–3 days after the introduction of the cDNAs. All experiments were done at room temperature (22 ± 1°C).
# Primary neuronal cultures were prepared from cortices of E18 rat embryos, (University of Queensland Biological Services), which were triturated and plated at 100,000 cells per 18-mm poly-D-lysine-coated coverslip in DMEM with 10% fetal bovine serum. After 24 h the entire medium was replaced with Neurobasal medium that included 2% B27 and 1% GlutaMAX supplements. After one week half of this medium was replaced and the neurons were allowed to grow in vitro for 3–5 weeks before introducing the transfected HEK293 cells. Recordings of synaptic currents were done in whole-cell configuration at ‐70 mV using an Axopatch 200B amplifier (Molecular Devices), filtered at 5 kHz and digitized at 20 kHz using Clampex (pClamp 10 suite, Molecular Devices) via a Digidata 1440A digitizer.
# Lipophilicity (logP) = type: physicochemical
# Chain of β GluClRs (P91730 19-432): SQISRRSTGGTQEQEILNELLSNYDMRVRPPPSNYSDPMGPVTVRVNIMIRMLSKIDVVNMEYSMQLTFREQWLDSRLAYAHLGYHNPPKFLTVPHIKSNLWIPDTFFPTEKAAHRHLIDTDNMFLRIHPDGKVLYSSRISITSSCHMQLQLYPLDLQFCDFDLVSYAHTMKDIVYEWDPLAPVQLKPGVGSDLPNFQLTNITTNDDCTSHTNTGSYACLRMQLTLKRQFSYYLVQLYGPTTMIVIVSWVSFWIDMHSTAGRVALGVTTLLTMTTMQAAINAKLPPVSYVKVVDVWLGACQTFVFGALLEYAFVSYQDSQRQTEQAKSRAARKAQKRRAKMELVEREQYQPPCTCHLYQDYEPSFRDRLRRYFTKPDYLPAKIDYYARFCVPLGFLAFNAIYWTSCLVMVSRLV
structure (smiles),measurement,setting,value
"CC[C@H](C)[C@H]1O[C@]2(CC[C@@H]1C)C[C@@H]1C[C@@H](C/C=C(\C)[C@@H](O[C@H]3C[C@H](OC)[C@@H](O[C@H]4C[C@H](OC)[C@@H](O)[C@H](C)O4)[C@H](C)O3)[C@@H](C)/C=C/C=C3\CO[C@@H]4[C@H](O)C(C)=C[C@@H](C(=O)O1)[C@]34O)O2 [IVM, Ivermectin]",intra-activation open probability (PO),β GluClRs,0.62 ± 0.04
same,mean active period duration,β GluClRs,120 ± 21 ms
same,IPSC activation (10–90% rise) time,α GluClRs; 15 minutes,19 ± 1 ms
same,peak IPSC amplitude,α GluClRs; 15 minutes,122 ± 39 pA
same,IPSC decay time constant,"α GluClRs; 15 minutes after start of application, −70 mV",100 ± 3 ms
same,logP,Lipophilicity (logP),5.4
